Values after ≈ are worked out from the molar mass of the structure shown.

As a reminder, the kinetic solubility is the concentration staying in solution when a stock, usually in DMSO, is diluted into the medium.

For the data set the following is noted: buffer; pH 7.4; 6.0 h; 150.0 µM.
`CCOc1ccccc1C(=O)Nc1ncccc1C(=O)Nc1cccc(S(=O)(=O)C(F)(F)F)c1`: the solubility (kinetic) was less than 1 µg/mL.

For `NC(=O)C1CCN(c2nc(-c3ccc(Oc4ccccc4)cc3)cs2)CC1`, the kinetic solubility is less than 1 µg/mL. Turning to `O=C(NC1CCCc2c1cnn2-c1cccc(O)c1)c1ccccn1` (configuration not stated), the solubility (kinetic) is 40 µg/mL (≈ 120 µM). In turn, `Cc1cc(N)c2cc(NC(=O)Nc3ccc4nc(C)cc(N)c4c3)ccc2n1.Cl.Cl` gave a solubility (kinetic) of less than 1 µg/mL. Then `FC(F)(F)c1ccc(CN2CCNc3cc(Nc4ccccc4)ncc3C2)cc1`, with less than 1 µg/mL; and `O=c1[nH]c(C2CCN(CC3CCCCC3)CC2)nn1Cc1ccccc1`, with more than 52 µg/mL; and `COc1cccc(CNc2ccc(S(=O)(=O)Nc3ccc(C4CCNCC4)cc3)cc2)c1O`, with 58.4 µg/mL (≈ 125 µM). Next, `O=S(=O)(Nc1nccs1)c1ccc(NCc2cccc(O)c2)cc1`: more than 53 µg/mL.

The compound `O=C1NC(=S)NC(=O)C1=Cc1cccn1-c1ccc(O)cc1` registered a kinetic solubility of 37 µg/mL (≈ 118 µM).

In the case of `NC(=O)C1CCN(c2nc(-c3ccc(Cl)cc3)cs2)CC1`, the solubility (kinetic) was 1.52 µg/mL (≈ 4.72 µM). Regarding `Cc1ccc2c(c1)/C(=C\c1cc(Cl)c(O)c(Cl)c1)C(=O)N2`, the solubility (kinetic) came out at 15.4 µg/mL (≈ 48.1 µM). Then `CCN(CC)[S+](=O)([O-])c1cc(NC(=O)c2[nH]c(C)c(C(C)=O)c2C)ccc1OC`, with 18.1 µg/mL (≈ 43 µM); and `CCC1=Nc2cc(C(=O)NCCCOC)ccc2Sc2ccc(Br)cc21`, with 6.63 µg/mL (≈ 15.3 µM); and `CCCCCCC.CN1C(=O)CN=C(c2ccc[nH]2)c2cc(Cl)ccc21`, with more than 40 µg/mL. `Clc1ccc(Nc2nc(-c3ccncc3)nc3ccccc23)cc1Cl` showed a kinetic solubility of less than 1 µg/mL. In turn, `Cc1c(C(=O)OCCOc2ccccc2)[nH]c2c1C(=O)CC(c1ccccc1)C2` (configuration not stated) showed a kinetic solubility of less than 1 µg/mL. Next, `CNc1oc(-c2ccccc2-c2ccccc2)nc1C#N`: 1.21 µg/mL (≈ 4.39 µM); `O=C(Nc1ccc(Cl)cc1Cl)c1cnc2ccccc2n1`: less than 1 µg/mL; `COc1cccc(CNCc2cccn2-c2nnc(N3CCN(c4ccccc4)CC3)s2)c1`: 5.15 µg/mL (≈ 11.2 µM). Compound `CC(=O)c1ccc(N2CCN(S(=O)(=O)c3ccc4[nH]c(=O)[nH]c4c3)CC2)cc1` had a solubility (kinetic) of 1.19 µg/mL (≈ 2.97 µM).

In turn, `Cc1ccc([S+](=O)([O-])n2cc(Cc3ccc(-c4ccccc4)cc3)c3ccccc32)cc1` came in with a kinetic solubility of less than 1 µg/mL. `CN(C)CCNC(=O)c1nc(-c2ccccc2)cc2[nH]ccc12`: the solubility (kinetic) was determined as 28.3 µg/mL (≈ 91.9 µM). With `CCCN(CCC)CCc1cccc2c1CC(=O)N2`, the kinetic solubility was 23.2 µg/mL (≈ 88.9 µM). With `CCOc1ccc(CCNC(=O)c2cc3sccc3n2C)cc1OCC`, the kinetic solubility was 8.05 µg/mL (≈ 21.6 µM). Next, `Cc1ccc(NS(=O)(=O)c2ccc3[nH]c4c(c3c2)CCCCCC4)cc1`: less than 1 µg/mL; `COc1cc2c(cc1NC(=O)COc1ccc(Cl)cc1)oc1ccccc12`: less than 1 µg/mL.

For `O=C1CCCC2=C1C(c1[nH]ncc1Cl)N=C(Nc1nc3cc([S+](=O)([O-])N4CCOCC4)ccc3o1)N2` (configuration not stated), the solubility (kinetic) is more than 78 µg/mL. Next, `Cc1c(-c2cccc3c(CCCOc4cccc5ccccc45)c(C(=O)O)n(Cc4cccnc4)c23)c(COc2ccc(N3CCN([S+](=O)([O-])N(C)C)CC3)cc2)nn1C`: less than 1 µg/mL; `Cc1nc2ccc(NC(=O)c3cc(S(=O)(=O)N(C)c4ccccc4)ccc3Cl)cc2s1`: less than 1 µg/mL. In turn, `Cc1ccc(S(=O)(=O)Nc2ccncc2C(=O)Nc2nc(-c3ccccc3)cs2)cc1` returned a kinetic solubility of less than 1 µg/mL. Next, `O=S(=O)(Nc1cnc2ccccc2c1)c1ccc(NCc2cccc(Cl)c2O)cc1`: 1.84 µg/mL (≈ 4.18 µM); `Cc1nc(N2CCN(c3ccccn3)CC2)c2c(C)c(C(=O)Nc3ccc(F)cc3Cl)sc2n1`: less than 1 µg/mL. `O=[S+]([O-])(Nc1ccc(N2CCNCC2)cc1)c1ccc(NCc2ccc(Cl)cc2O)cc1` gave a solubility (kinetic) of 25.2 µg/mL (≈ 53.3 µM). Take `OCCOCCN1CCN(C(c2ccccc2)c2ccc(Cl)cc2)CC1` (configuration not stated): the kinetic solubility is more than 55 µg/mL. Then `COc1ccc(OC)c(-c2cc(C(=O)N3CCN(c4ncccn4)CC3)c3ccccc3n2)c1`, with 24.5 µg/mL (≈ 53.7 µM); and `CC(=O)c1c(C)n(-c2ccccc2)c2ccc(O)cc12`, with 1.14 µg/mL (≈ 4.28 µM). Then `NC(=O)C1CCN(c2nc(-c3cccc(C(F)(F)F)c3)cs2)CC1`, with 2.41 µg/mL (≈ 6.78 µM). Then `Cc1noc(C)c1-c1ccc2ncnc(NCc3cccc(Cl)c3)c2c1`, with less than 1 µg/mL. The compound `CCc1ccc(OC(C)C(=O)N2CCC(c3nc4ccccc4o3)CC2)cc1` (configuration not stated) displayed a solubility (kinetic) of 17.9 µg/mL (≈ 47.3 µM). Then `COc1cc(O)c([C@H](CC(=O)N2CC(C)CC(C)C2)c2ccc3c(c2)OCO3)c(OC)c1` (some centres not stated), with 2.51 µg/mL (≈ 5.69 µM). `Cc1ccc(Nc2nc(-c3ccncc3)nc3ccccc23)cc1F` gave a solubility (kinetic) of less than 1 µg/mL.

Compound `Cc1ccnc(NC(=S)N2CCN(c3ncc(C(F)(F)F)cc3Cl)CC2)c1` gave a solubility (kinetic) of 12 µg/mL (≈ 29 µM). For `Cc1cnc(CNc2nc(-c3ccccc3Cl)nc3ccccc23)cn1`, the kinetic solubility came out at 41.9 µg/mL (≈ 116 µM). `Cc1ccc(-c2nn(C(C)(C)C)c3ncnc(N)c23)cc1` showed a kinetic solubility of 2.5 µg/mL (≈ 8.88 µM). Then `O=C(NCC1(c2nc(-c3ccccc3)cs2)CCOCC1)c1cccc(-c2noc(C(F)(F)F)n2)c1`, with 4.96 µg/mL (≈ 9.65 µM); and `CN1Cc2c(ccc3c2OCO3)[C@@H]2[C@H]1c1cc3c(cc1C[C@@H]2O)OCO3`, with more than 52 µg/mL; and `CC(C)(C)c1ccc(OCc2nn3c(-c4ccncc4)nnc3s2)cc1`, with less than 1 µg/mL.

`c1ccc(-c2csc3ncnc(Sc4nnn(-c5ccccc5)n4)c23)cc1` showed a kinetic solubility of less than 1 µg/mL. Next, `COc1ccc(C(=O)Nc2ccc3c(c2)N(C2CCCC2)C(=O)c2ccccc2S3)cc1OC`: less than 1 µg/mL; `Oc1ccc(CNc2cccc(F)c2)c2cccnc12`: less than 1 µg/mL.

Consider `COc1cc2c(cc1-c1c(C)noc1C)ncc1[nH]c(=O)n([C@H](C)c3ccccn3)c12`, for which the kinetic solubility was more than 61 µg/mL. Then `COc1cc(-c2c(C#N)c(N)nc3c2c(C)nn3-c2ccc(F)cc2)ccc1O`, with less than 1 µg/mL; and `Fc1ccc(CN2CCNc3cc(Nc4ccccc4)ncc3C2)cc1F`, with 45.3 µg/mL (≈ 124 µM).

Compound `CC(C)Oc1cccc(-c2csc(N3CCC(C(N)=O)CC3)n2)c1` had a kinetic solubility of 41.7 µg/mL (≈ 121 µM).

As for `CC1(C)CC2CC(C)(CN2S(=O)(=O)c2ccc(C(=O)Nc3cccc(S(=O)(=O)N4CCOCC4)c3)cc2)C1` (configuration not stated), the kinetic solubility is less than 1 µg/mL. `O=C(NCCO)c1cccc(-c2cc(Nc3ccc(OC(F)(F)F)cc3)ncn2)c1` displayed a kinetic solubility of 8.93 µg/mL (≈ 21.3 µM). In turn, `CC(C)c1ccccc1-c1ncc(F)c(NC2(c3ccc(-c4cccnc4)cc3)CC2)n1` showed a kinetic solubility of less than 1 µg/mL.

The compound `COc1cccc(C(=O)Nc2ccc3oc(-c4ccc5ccccc5c4)nc3c2)c1` showed a kinetic solubility of less than 1 µg/mL.

As to `O=C1CCCC2=C1C1(CCSCC1)N=C(Nc1nc3ccccc3o1)N2`, the solubility (kinetic) was less than 1 µg/mL. Next, `CCOC(=O)c1ccc(NC2CCCCC2)c(N)c1`: 31 µg/mL (≈ 118 µM); `Cc1c(NC2=C(Cl)C(=O)N(c3ccccc3)C2=O)c(=O)n(-c2ccccc2)n1C`: less than 1 µg/mL. For the compound `CN(C)C(=O)c1nc(-c2ccc(Cl)nc2)c2ccccn12`, the solubility (kinetic) was 27.6 µg/mL (≈ 91.8 µM).

Compound `CC(=O)c1ccc(-c2csc(N3CCC(C(N)=O)CC3)n2)cc1` gave a solubility (kinetic) of 6.11 µg/mL (≈ 18.6 µM). Compound `CC(C)c1ccccc1-c1ncc(F)c(NCC2CCN(c3cnccn3)C2)n1` (configuration not stated) registered a kinetic solubility of 32.1 µg/mL (≈ 81.7 µM). Next, `CN1CCCC(CC2c3ccccc3Sc3ccccc32)C1.Cl` (configuration not stated): more than 46 µg/mL; `COc1ccc(-c2nc3ccccc3c(=O)n2Cc2ccccc2)cc1COc1ccc(NC(C)=O)cc1`: less than 1 µg/mL; `COC[C@@H]1CN(C(=O)c2nn(C)c3ccccc23)C[C@H]1c1nc(C)no1`: more than 100 µg/mL.

As for `Cc1cc(NS(=O)(=O)c2ccc(NC(=O)Cc3ccc(Cl)c(F)c3)cc2)no1`, the kinetic solubility was more than 63 µg/mL. Then `CC(C)CN(C[C@@H](O)[C@H](Cc1ccccc1)NC(=O)O[C@@H]1CO[C@H]2OCC[C@H]21)S(=O)(=O)c1ccc(N)cc1`, with more than 81 µg/mL; and `COc1ccc(NC(=O)c2cccnc2C)cc1S(=O)(=O)Nc1ccc(Br)cc1`, with 26.4 µg/mL (≈ 55.5 µM); and `COc1ccc(NS(=O)(=O)c2ccc(C)c(C(=O)Nc3ccc4oc(C)nc4c3)c2)cc1`, with 8.77 µg/mL (≈ 19.4 µM).

The compound `Cc1ccc(S(=O)(=O)Nc2cnccc2C(=O)Nc2ccccc2)cc1` displayed a kinetic solubility of more than 54 µg/mL. Next, `CCOc1ccc(CCNC(=O)c2cc3ccccc3n2C)cc1OCC`: 1.63 µg/mL (≈ 4.44 µM); `N#Cc1ccc(NS(=O)(=O)c2ccc(NC(=O)Cc3ccc(Cl)c(Cl)c3)cc2)cc1`: less than 1 µg/mL; `COc1ccnc(NC(=S)N2CCN(c3cc(C(F)(F)F)cc(C(F)(F)F)c3)CC2)c1`: 2.88 µg/mL (≈ 6.21 µM).

As to `O=C1Nc2c(Cl)cccc2/C1=C\c1cc(Cl)c(O)c(Cl)c1`, the solubility (kinetic) was determined as 7.3 µg/mL (≈ 21.4 µM).

Compound `COc1ccc(-n2nc(C3CCCN(C(=O)Cc4ccccn4)C3)[nH]c2=O)cc1` (configuration not stated) registered a solubility (kinetic) of more than 58 µg/mL. `Cc1c([C@@H](C)C2NC[C@H](C)C[C@@H]2O)ccc2c1C[C@@H]1[C@H]2CC=C2C[C@@H](O)CC[C@@]21C` (some centres not stated) showed a kinetic solubility of 40.9 µg/mL (≈ 99.7 µM).

For the compound `Cc1nc([C@](C)(O)CO)sc1-c1cnc(N)c(O[C@H](C)c2cc(F)ccc2-n2nccn2)c1`, the kinetic solubility was determined as 37.3 µg/mL (≈ 79.2 µM). Then `CCCCc1ccc(NC(=O)c2ccc3c(c2)N(S(C)(=O)=O)CC3)cc1`, with 1.08 µg/mL (≈ 2.91 µM); and `CCC(Sc1nc2ccccc2c2nc(CCc3c(C)n[nH]c3C)nn12)C(=O)Nc1ccc(F)cc1` (configuration not stated), with less than 1 µg/mL.

In the case of `O=C1NC(=O)C(c2cnc3ccccn23)=C1c1cn2c3c(cccc13)CN(C(=O)N1CCOCC1)CC2`, the solubility (kinetic) is more than 73 µg/mL.

`C[C@]12CC[C@@H]3[C@H](CCC4=CC(=O)CC[C@]43C)[C@]1(O)CC[C@@]2(O)C(=O)CO` returned a kinetic solubility of more than 54 µg/mL.

Take `O=C(C1CCN(c2nc(-c3ccc(Br)cc3)cs2)CC1)N1CCNCC1`: the solubility (kinetic) was more than 64 µg/mL.

In the case of `Oc1c(CN2CCN(c3ccccn3)CC2)cc(Cl)c2cccnc12`, the solubility (kinetic) was found to be 11.4 µg/mL (≈ 32.1 µM). Next, `Fc1ccc(-c2csc3ncnc(NCc4ccc5c(c4)OCO5)c23)cc1`: 0.226 µg/mL (≈ 0.596 µM); `Cc1ccc2c(c1)[nH]c1c(N3CCN(Cc4ccccc4)CC3)ncnc12`: less than 1 µg/mL.
